Toxic doses and inconclusive results are not listed. Cut-off read from the data, not from the text of the source: active = T/C of 150% or more; inactive = T/C below 125%.
Test system: L1210 leukemia ip in BDF1 mice, survival T/C
Test: NCI In Vivo Anticancer Drug Screen. Data for tumor model L1210 Leukemia (intraperitoneal) in B6D2F1 (BDF1) mice
Settings: endpoint: mean survival time, higher = longer survival
In short: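 Tumor was transplanted into mice, which were then dosed with test compound or vehicle alone. Survival was recorded for each group, and the treated figure was expressed relative to the control figure.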

[1] = dose: 100.0 mg/kg/injection, schedule: Q01DX001 (ip), vehicle: saline with Tween-80
[2] = dose: 200.0 mg/kg/injection, schedule: Q01DX001 (ip), vehicle: saline with Tween-80
[3] = dose: 100.0 mg/kg/injection, schedule: Q04DX002 (ip), vehicle: saline with Tween-80
[4] = dose: 200.0 mg/kg/injection, schedule: Q04DX002 (ip), vehicle: saline with Tween-80
[5] = dose: 400.0 mg/kg/injection, schedule: Q04DX002 (ip), vehicle: saline with Tween-80
[6] = dose: 100.0 mg/kg/injection, schedule: Q01DX001 (ip), vehicle: saline
[7] = dose: 200.0 mg/kg/injection, schedule: Q01DX001 (ip), vehicle: saline
[8] = dose: 100.0 mg/kg/injection, schedule: Q01DX001 (ip), vehicle: Klucel (hydroxypropylcellulose) (HPC)
[9] = dose: 200.0 mg/kg/injection, schedule: Q01DX001 (ip), vehicle: Klucel (hydroxypropylcellulose) (HPC)
[10] = dose: 400.0 mg/kg/injection, schedule: Q01DX001 (ip), vehicle: Klucel (hydroxypropylcellulose) (HPC)
[11] = dose: 100.0 mg/kg/injection, schedule: Q04DX003 (ip), vehicle: saline with Tween-80
[12] = dose: 200.0 mg/kg/injection, schedule: Q04DX003 (ip), vehicle: saline with Tween-80
[13] = dose: 400.0 mg/kg/injection, schedule: Q04DX003 (ip), vehicle: saline with Tween-80
[14] = dose: 100.0 mg/kg/injection, schedule: Q04DX002 (ip), vehicle: Klucel (hydroxypropylcellulose) (HPC)
[15] = dose: 200.0 mg/kg/injection, schedule: Q04DX002 (ip), vehicle: Klucel (hydroxypropylcellulose) (HPC)
[16] = dose: 400.0 mg/kg/injection, schedule: Q04DX002 (ip), vehicle: Klucel (hydroxypropylcellulose) (HPC)

Measured: T/C

C#CCN(Cc1ccccc1)C(=O)Nc1cccc(Cl)c1
inactive: dose: 100.0 mg/kg/injection, schedule: Q04DX003 (ip), vehicle: other 106 % of control | dose: 200.0 mg/kg/injection, schedule: Q04DX003 (ip), vehicle: other 98 % of control | dose: 400.0 mg/kg/injection, schedule: Q04DX003 (ip), vehicle: other 96 % of control

CCCCCCCCCCCCCCC
inactive: [1] 107 % of control | [2] 95 % of control | dose: 400.0 mg/kg/injection, schedule: Q01DX001 (ip), vehicle: saline with Tween-80 91 % of control

O=C1CCN(Cc2ccccc2)C(=S)N1
inactive: dose: 100.0 mg/kg/injection, schedule: Q01DX Z (ip), vehicle: methylcellulose (MC) 93 % of control

COc1ccc(C2NC(=O)CCC2[N+](=O)[O-])cc1OC (configuration not stated)
inactive: [3] 91 % of control | [4] 91 % of control | [5] 94 % of control

CCCCSC1=NCCCS1
inactive: dose: 75.0 mg/kg/injection, schedule: Q01DX001 (ip), vehicle: other 104 % of control | dose: 150.0 mg/kg/injection, schedule: Q01DX001 (ip), vehicle: other 111 % of control | dose: 300.0 mg/kg/injection, schedule: Q01DX001 (ip), vehicle: other 102 % of control

CC1CN(c2ccccc2)CN1c1ccccc1 (configuration not stated)
inactive: dose: 100.0 mg/kg/injection, schedule: Q04DX002 (sc), vehicle: olive oil, sesame oil, peanut oil 94 % of control | dose: 200.0 mg/kg/injection, schedule: Q04DX002 (sc), vehicle: olive oil, sesame oil, peanut oil 91 % of control | dose: 400.0 mg/kg/injection, schedule: Q04DX002 (sc), vehicle: olive oil, sesame oil, peanut oil 102 % of control

CCC1CCCCN1C (configuration not stated)
inactive: dose: 25.0 mg/kg/injection, schedule: Q01DX009 (ip), vehicle: acetone 96 % of control | dose: 50.0 mg/kg/injection, schedule: Q01DX009 (ip), vehicle: acetone 94 % of control | dose: 100.0 mg/kg/injection, schedule: Q01DX009 (ip), vehicle: acetone 100 % of control

CC1OC(n2cnc3c(=S)nc[nH]c32)C(O)C1O (configuration not stated)
inactive: dose: 50.0 mg/kg/injection, schedule: Q01DX001 (ip), vehicle: saline 93 % of control | [6] 96 % of control | [7] 102 % of control | dose: 400.0 mg/kg/injection, schedule: Q01DX001 (ip), vehicle: saline 93 % of control

Nc1ccc(C2=NCCO2)cc1
inactive: [8] 92 % of control | [9] 103 % of control | [10] 96 % of control

COC1CCC(/C(C#N)=C/C2CCC(NC(C)=O)CC2)CC1 (configuration not stated)
inactive: [3] 101 % of control | [4] 105 % of control | [5] 94 % of control

N#CCCNc1ccccc1
inactive: dose: 100.0 mg/kg/injection, schedule: Q01DX009 (ip), vehicle: saline with Tween-80 95 % of control | [11] 103 % of control | dose: 200.0 mg/kg/injection, schedule: Q01DX009 (ip), vehicle: saline with Tween-80 106 % of control | [12] 108 % of control | dose: 400.0 mg/kg/injection, schedule: Q01DX009 (ip), vehicle: saline with Tween-80 86 % of control | [13] 105 % of control

C#CC(C)(O)CC(C)C (configuration not stated)
inactive: [6] 100 % of control | [7] 100 % of control

CCN(CC)CCCC(C)Nc1cc(C)nc2ccc(N(C)C)cc12 (configuration not stated)
inactive: dose: 12.5 mg/kg/injection, schedule: Q01DX009 (ip), vehicle: saline with Tween-80 104 % of control | dose: 25.0 mg/kg/injection, schedule: Q01DX009 (ip), vehicle: saline with Tween-80 111 % of control | dose: 50.0 mg/kg/injection, schedule: Q01DX009 (ip), vehicle: saline with Tween-80 106 % of control

N=c1ccn(CC(Cl)COc2ccccc2)cc1 (configuration not stated)
inactive: dose: 5.0 mg/kg/injection, schedule: Q01DX001 (ip), vehicle: saline 103 % of control | dose: 10.0 mg/kg/injection, schedule: Q01DX001 (ip), vehicle: saline 105 % of control | dose: 20.0 mg/kg/injection, schedule: Q01DX001 (ip), vehicle: saline 105 % of control | dose: 40.0 mg/kg/injection, schedule: Q01DX001 (ip), vehicle: saline 100 % of control | dose: 80.0 mg/kg/injection, schedule: Q01DX001 (ip), vehicle: saline 105 % of control | [6] 101 % of control

c1ccc(N(CC2CO2)CC2CO2)cc1 (configuration not stated)
inactive: [11] 106 % of control | [12] 104 % of control | [13] 112 % of control

O=C(Cc1ccccc1)O/C=C1/CCOC1=O
inactive: [14] 91 % of control | [15] 91 % of control | [16] 94 % of control

COc1c(-c2cc(C)nc(NC#N)n2)c(O)cc2occc12
inactive: [14] 95 % of control | [15] 95 % of control | [16] 98 % of control

O=C(Nc1ccccc1F)N(Cc1ccccc1)Cc1ccccc1
inactive: dose: 50.0 mg/kg/injection, schedule: Q01DX009 (ip), vehicle: Klucel (hydroxypropylcellulose) (HPC) 96 % of control | dose: 100.0 mg/kg/injection, schedule: Q01DX009 (ip), vehicle: Klucel (hydroxypropylcellulose) (HPC) 104 % of control | dose: 200.0 mg/kg/injection, schedule: Q01DX009 (ip), vehicle: Klucel (hydroxypropylcellulose) (HPC) 101 % of control

C=C1C(=O)OC2CCCC/C=C\C12 (configuration not stated)
inactive: dose: 50.0 mg/kg/injection, schedule: Q01DX009 (ip), vehicle: saline 95 % of control | dose: 100.0 mg/kg/injection, schedule: Q01DX009 (ip), vehicle: saline 98 % of control | dose: 200.0 mg/kg/injection, schedule: Q01DX009 (ip), vehicle: saline 95 % of control

Cc1c(CCC(C)C)oc2cc3oc(CCC(C)C)c(C)c3cc12
inactive: dose: 75.0 mg/kg/injection, schedule: Q01DX001 (ip), vehicle: carboxymethylcellulose (CMC) 96 % of control | dose: 150.0 mg/kg/injection, schedule: Q01DX001 (ip), vehicle: carboxymethylcellulose (CMC) 90 % of control | dose: 300.0 mg/kg/injection, schedule: Q01DX001 (ip), vehicle: carboxymethylcellulose (CMC) 90 % of control

O=C(OCCCl)c1ccccc1
inactive: dose: 60.0 mg/kg/injection, schedule: Q01DX009 (ip), vehicle: Klucel (hydroxypropylcellulose) (HPC) 103 % of control | [8] 106 % of control | dose: 100.0 mg/kg/injection, schedule: Q04DX003 (ip), vehicle: Klucel (hydroxypropylcellulose) (HPC) 101 % of control | dose: 120.0 mg/kg/injection, schedule: Q01DX009 (ip), vehicle: Klucel (hydroxypropylcellulose) (HPC) 100 % of control | [9] 98 % of control | dose: 200.0 mg/kg/injection, schedule: Q04DX003 (ip), vehicle: Klucel (hydroxypropylcellulose) (HPC) 101 % of control | dose: 240.0 mg/kg/injection, schedule: Q01DX009 (ip), vehicle: Klucel (hydroxypropylcellulose) (HPC) 94 % of control | [10] 98 % of control | dose: 400.0 mg/kg/injection, schedule: Q04DX003 (ip), vehicle: Klucel (hydroxypropylcellulose) (HPC) 101 % of control

OC(c1ccccc1)(c1ccccc1)c1cccnc1
inactive: dose: 75.0 mg/kg/injection, schedule: Q04DX002 (ip), vehicle: saline 105 % of control | dose: 150.0 mg/kg/injection, schedule: Q04DX002 (ip), vehicle: saline 93 % of control

O=[N+]([O-])C=C1CCCCC1
inactive: [1] 101 % of control | [2] 109 % of control
